US20250230226A1, “PLXDC1/PLXDC2 ACTIVATORS AND THEIR USE IN THE TREATMENT OF BLOOD VESSEL DISORDERS” (THE REGENTS OF THE UNIVERSITY OF CALIFORNIA, priority 2019, published 2025)

System: LL/2 lung cancer tumor endothelial cells
Test: Lung LL2 ex vivo model of tumor angiogenesis
Type: cell-based, mouse
Details: for Cell death: drug treatment for two days, ratio of red area to total endothelial cell area; for 48 hrs (morphology observations): LL/2 tumor endothelial cells; for cytotoxicity at 40 µM / cytotoxicity at 20 µM: Mus musculus, Endothelial cell, 48 h, read-out: Cell death
Experimental: An ex vivo tumor angiogenesis model was developed to test the efficacy of anti-cancer candidate agents. The following protocol describes the Ex Vivo Tumor Angiogenesis Model.
• 1. The day before the experiment, all necessary tools were sprayed with 70% ethanol and sterilized under UV light overnight, including blade, dissecting and micro-dissecting scissors and […]. 24-well dishes were placed at 4° C. to pre-chill plates and Matrigel was thawed, 24 hours before tumor dissection. • 2. 70% ethanol was sprayed on working bench. Two sterile petri dishes were prepared with 10 ml sterile PBS. The following steps 3 and 4 are necessary for mouse tumor models. For fresh human tumor, steps 3 and 4 are skipped. • 3. The tumor-bearing mice were euthanized. 70% ethanol was sprayed on the mouse and the tumor was removed using sterilized dissecting tools (avoid the fur). The tumor was rinsed in petri dish with sterile PBS to remove ethanol and fur. The tumor was transferred to a new petri dish with PBS for dissection. The dish is placed on ice. • 4. Pre-chilled sterile pipet tips were used to seed regular Matrigel in 24 well plates on ice. Matrigel (30 μl) was dropped in the middle of each well without touching the edge of the well (avoid introducing bubbles if possible). • 5. The tumor was cut in halves using the sterile blade. Healthy tumor tissue that is not necrotic and is within the tumor capsule was identified and isolated. The healthy tumor tissue was cut into small pieces. For instance, a suitable size for the tumor tissue is 0.5 mm (H)×0.5 mm (L)×0.3 mm (D) with a total volume of 0.075 mm^3. • 6. Each tumor piece was gently transferred and embedded in the Matrigel drop in the 24-well plate. The embedded piece was placed in the bottom and middle of each Matrigel drop. The plate was kept on ice all the time. • 7. After seeding the tumor pieces, plates were incubated in a 37° C. cell culture incubator without medium for 10 minutes in order for the Matrigel to solidify. • 8. Endothelial Growth Medium (0.5 ml) was added to each well and incubated at 37° C. with 5% CO2. Treatment was not added until the new endothelial cells was grown out of the tumor or were larger than 3 mm in diameter. This usually takes 4 days for the LL2 Lewis lung cancer model and 7 days for the CT26 colon cancer model. For human tumor models, the growth time is typically 2-3 weeks, depending on the tumor type. Media was changed every 4 days during prolonged culture. Typically, when the tumor tissue grows to 2 mm in diameter, it was good for drug testing. A size of about 3 mm in diameter can make visualization easier. • 9. When the assay was ready to be analyzed for cell death (e.g., 48 hours after drug addition), the dye mixture was prepared by mixing 6 μl of green dye to stain live cells (5 mg/ml Fluorescein diacetate or FDA in DMSO) with 30 μl of red dye (2.5 mg/ml Propidium iodide or PI in PBS) to stain dead cells in an Eppendorf tube. The FDA dye needs to be stored frozen in a −20° C. freezer because it has a labile ester bond. • 10. 1 μl of the dye mixture was added to each well of the 24-well dish. It is usually preferred to do one 24-well dish at a time given the amount of time needed to take pictures (the green dye is not as stable in the cells in the long term). • 11. The dish was gently rocked a few times to mix the dye with the media in the wells and incubate the dish at 37° C. for 10 min (too long incubation can make the green signal too intense). • 12. Each well was washed with 0.5 ml of sterile PBS and then 0.5 ml of phenol red free SFM was added to each well. Alternatively 0.5 ml of regular Endothelial Cell Growth Media can be added to each well if this well needs to be continuously maintained after the experiment. • 13. An inverted microscope using the 2× objective lens was used to observe morphological changes in the experimental wells. • 14. […]

Compound | 48 hrs (morphology observations) (20 μm) | Cell death (20 μm) [%] | other results
COc1ccc(S(=O)(=O)c2cnc3ccc(OC(F)(F)F)cc3c2NCCO)cc1OC [Compound 73] |  |  | Cell death (40 μm): 10%
CCc1ccc(S(=O)(=O)c2cnc3ccc(OC)cc3c2NN2CCN(C)CC2)cc1 [Compound 83] |  |  | 48 hrs (morphology observations) (40 μm): 0; cytotoxicity at 40 µM: 20%
CCc1ccc(S(=O)(=O)c2cnc3ccc(OC(F)(F)F)cc3c2N2CCC(N(CC)CC)CC2)cc1 [Compound 103] | 0 | 10 | 
CCc1ccc(S(=O)(=O)c2cnc3ccc(OC(F)(F)F)cc3c2NCCCCCO)cc1 [Compound 104] | 0 | 20 | 
CCc1ccc(S(=O)(=O)c2cnc3ccc(OC(F)(F)F)cc3c2NN2CCCCC2)cc1 [Compound 105] | 0 | 0 | 
CCc1ccc(S(=O)(=O)c2cnc3ccc(OC(F)(F)F)cc3c2NCc2ccncc2)cc1 [Compound 106] | 0 | 5 | 
CCc1ccc(S(=O)(=O)c2cnc3ccc(OC(F)(F)F)cc3c2Nc2ccncc2)cc1 [Compound 107] | 0 | 0 | 
CCc1ccc(S(=O)(=O)c2cnc3ccc(OC(F)(F)F)cc3c2-n2cccc2)cc1 [Compound 108] | 0 | 0 | 
CCc1ccc(S(=O)(=O)c2cnc3ccc(OC(F)(F)F)cc3c2-n2cccn2)cc1 [Compound 109] | 0 | 0 | 
CCc1ccc(S(=O)(=O)c2cnc3ccc(OC(F)(F)F)cc3c2NCCCCO)cc1 [Compound 111] | 0 | 30 | 
COc1ccc(S(=O)(=O)c2cnc3ccc(OC(F)(F)F)cc3c2N2CCC(N3CCC(O)CC3)CC2)cc1 [Compound 113] | 0 |  | cytotoxicity at 20 µM: 10%
COc1ccc(S(=O)(=O)c2cnc3ccc([N+](=O)[O-])cc3c2N2CCC(N3CCCCC3)CC2)cc1 [Compound 114] | 0 | 5 | 
COc1ccc(S(=O)(=O)c2cnc3ccc(CC#N)cc3c2N2CCC(N3CCCCC3)CC2)cc1 [Compound 115] | 0 |  | cytotoxicity at 20 µM: 10%
O=S(=O)(c1ccc(OC(F)(F)F)cc1)c1cnc2ccc(OC(F)(F)F)cc2c1N1CCC(N2CCCCC2)CC1 [Compound 120] | 0 |  | cytotoxicity at 20 µM: 5%
COc1ccc(S(=O)(=O)c2cnc3cc(OC)c(OC)cc3c2N2CCC(N3CCCCC3)CC2)cc1OC [Compound 122] | 0 | 10 | 
CCc1ccc(S(=O)(=O)c2cnc3ccc(OC(F)(F)F)cc3c2-n2cnnn2)cc1 [Compound 125] | * (50% or less of cells vesicularize in cell shape) |  | cytotoxicity at 20 µM: 10%
CCc1ccc(S(=O)(=O)c2cnc3ccc(OC(F)(F)F)cc3c2NN2CCOCC2)cc1 [Compound 126] | 0 | 10 | 
CCOC(=O)c1ccc2ncc(S(=O)(=O)c3ccc(CC)cc3)c(-n3nnc4ccccc43)c2c1 [Compound 133] |  | 10 | 

Compound | 48 hrs (morphology observations) (20 μm) | Cell death (20 μm) [%] | other results
CCOC(=O)c1ccc2ncc(S(=O)(=O)c3ccc(CC)cc3)c(-n3ccnc3)c2c1 [Compound 134] | **** (100% of endothelial cells vesicularize in cell shape and look flattened in morphology (indicating disintegration of the cell body)) |  | 
CCOC(=O)c1ccc2ncc(S(=O)(=O)c3ccc(OC)cc3)c(-n3ccnc3)c2c1 [Compound 141] | **** (100% of endothelial cells vesicularize in cell shape and look flattened in morphology (indicating disintegration of the cell body)) | 90 | 
CCOC(=O)c1ccc2ncc(S(=O)(=O)c3ccc(OC)cc3)c(-n3nnc4ccccc43)c2c1 [Compound 142] | **** (100% of endothelial cells vesicularize in cell shape and look flattened in morphology (indicating disintegration of the cell body)) |  | 
CNC(=O)c1ccc2ncc(S(=O)(=O)c3ccc(OC)cc3)c(N3CCC(N4CCCCC4)CC3)c2c1 [Compound 143] |  |  | 48 hrs (morphology observations) (40 μm): 0; cytotoxicity at 40 µM: 40%
CCCCOc1ccc(S(=O)(=O)c2cnc3ccc([S+](C)[O-])cc3c2N2CCC(N3CCCCC3)CC2)cc1 (stereo not shown) [Compound 167] | 0 | 40 | 
CCCCOc1ccc(S(=O)(=O)c2cnc3ccc([S+](C)[O-])cc3c2N2CCC(N3CCC(O)CC3)CC2)cc1 (stereo not shown) [Compound 168] | 0 | 10 | 
CCCCOc1ccc(S(=O)(=O)c2cnc3ccc(S(C)(=O)=O)cc3c2N2CCC(N3CCCCC3)CC2)cc1 [Compound 169] | 0 | 40 | 
CCCCOc1ccc(S(=O)(=O)c2cnc3ccc(S(C)(=O)=O)cc3c2N2CCC(N3CCC(O)CC3)CC2)cc1 [Compound 170] | 0 | 10 | 
CCOC(=O)c1ccc2ncc(S(=O)(=O)c3ccc(OC)cc3)c(N3CCC(N4CCN(C)CC4)CC3)c2c1 [Compound 171] |  |  | 48 hrs (morphology observations) (40 μm): 0; Cell death (40 μm): 40%
CCCCOc1ccc(S(=O)(=O)c2cnc3ccc(C(=O)OCC)cc3c2N2CCC(N3CCN(C)CC3)CC2)cc1 [Compound 172] |  |  | 48 hrs (morphology observations) (40 μm): **** (100% of endothelial cells vesicularize in cell shape and look flattened in morphology (indicating disintegration of the cell body)); Cell death (40 μm): 100%
CCOC(=O)c1ccc2ncc(S(=O)(=O)c3ccc(OC)cc3)c(N3CCC(N4CCCCCC4)CC3)c2c1 [Compound 173] |  |  | Cell death (40 μm): 50%
CCOC(=O)c1ccc2ncc(S(=O)(=O)c3ccc(OC)cc3)c(N3CCC(N4CCCC(O)C4)CC3)c2c1 (stereo not shown) [Compound 174] |  |  | 48 hrs (morphology observations) (40 μm): 0; Cell death (40 μm): 30%
CCOC(=O)c1ccc2ncc(S(=O)(=O)c3ccc(OC)cc3)c(N3CCC(N4CCC(CO)CC4)CC3)c2c1 [Compound 175] |  |  | 48 hrs (morphology observations) (40 μm): 0; Cell death (40 μm): 30%
CCCCOc1ccc(S(=O)(=O)c2cnc3ccc(C(=O)OCC)cc3c2N2CCC(N3CCCCCC3)CC2)cc1 [Compound 176] |  |  | 48 hrs (morphology observations) (40 μm): *** (more than 50% but less than 100% of endothelial cells vesicularize in cell shape); Cell death (40 μm): 100%
CCCCOc1ccc(S(=O)(=O)c2cnc3ccc(C(=O)OCC)cc3c2N2CCC(N3CCCC(O)C3)CC2)cc1 (stereo not shown) [Compound 177] |  |  | 48 hrs (morphology observations) (40 μm): **** (100% of endothelial cells vesicularize in cell shape and look flattened in morphology (indicating disintegration of the cell body)); Cell death (40 μm): 100%
CCCCOc1ccc(S(=O)(=O)c2cnc3ccc(C(=O)OCC)cc3c2N2CCC(N3CCC(CO)CC3)CC2)cc1 [Compound 178] |  |  | 48 hrs (morphology observations) (40 μm): **** (100% of endothelial cells vesicularize in cell shape and look flattened in morphology (indicating disintegration of the cell body)); Cell death (40 μm): 100%
CCOC(=O)c1ccc2ncc(S(=O)(=O)c3ccc(OC)cc3)c(N3CCCN(CCN4CCCCC4)CC3)c2c1 [Compound 179] |  |  | 48 hrs (morphology observations) (10 μm): *** (more than 50% but less than 100% of endothelial cells vesicularize in cell shape); Cell death (10 μm): 60%
CCOC(=O)c1ccc2ncc(S(=O)(=O)c3ccc(OC)cc3)c(N3CCCN(CCN4CCCC4)CC3)c2c1 [Compound 180] |  |  | 48 hrs (morphology observations) (10 μm): *** (more than 50% but less than 100% of endothelial cells vesicularize in cell shape); Cell death (10 μm): 70%
